Data from US12427192B2, “Water soluble adjuvant and composition containing same” (Sumitomo Pharma Co., Ltd., priority 2019, dated 2025).

How the values were obtained:
[1] = system: HLA-A*24:02 transgenic mouse; experiment: Test 8: in vivo adjuvant activity, vaccine e (Peptide SEQ ID No. 18), IFNγ ELISPOT; conditions: added to vaccine e; 0.4 nmol per body, twice; FIG. 5
Method: Evaluation of In Vivo Adjuvant Activity in HLA-A*24:02 Transgenic Mouse
The in vivo adjuvant activity of the compound of Example 1 was evaluated in the following procedure. To a vaccine prepared by mixing Peptide SEQ ID No. 18 prepared in Reference example 20 with Montanide ISA 51 VG (hereinafter, referred to as “vaccine e”) was added the compound prepared in Example 1 to prepare a vaccine. The vaccine was administered to a HLA-A*24:02 transgenic mouse, and the adjuvant activity of the vaccine was evaluated by the method of testing antigen-specific CTL induction. The TYAGCLSQIF in Peptide SEQ ID No. 18 corresponds to an antigen peptide derived from an HLA-A*24:02-restricted Or7c1 protein.
The character for inducing CTLs specific to the antigen peptide (SEQ ID No. 18) by vaccine e was evaluated by measuring whether IFNγ can be produced upon stimulation of splenocytes from the mouse with the peptide. In addition, the character for exerting in vivo adjuvant activity by the compound in Example 1 was evaluated by comparing the number of CTLs induced by vaccine e and the number of CTLs induced by the vaccine prepared by adding the compound prepared in Example 1 to vaccine e, and checking presence or absence of the increase on the number.
Specifically, Peptide of SEQ ID No. 18 was dissolved in DMSO, and then diluted with water for injection to concentrations of 3 mg/mL. […]

[2] = system: HLA-A*02:01 transgenic mouse; experiment: Test 15: in vivo adjuvant activity, cocktail vaccine j (hydrogel formulation), IFNγ ELISPOT; conditions: added to cocktail vaccine j (hydrogel formulation); 0.4 nmol per body, twice; FIG. 17 and 18
Method: Evaluation of In Vivo Adjuvant Activity in HLA-A*02:01 Transgenic Mouse
The in vivo adjuvant activity of the compound of Example 1 was evaluated in the following procedure. To a vaccine (hydrogel formulation) comprising Compound of formula 4 prepared in Reference example 8 and Peptide SEQ ID No. 3 prepared in Reference example 3 (hereinafter, referred to as “cocktail vaccine j”) was added the compound prepared in Example 1 to prepare a vaccine. The vaccine was administered to a HLA-A*02:01 transgenic mouse, and the adjuvant activity of the vaccine was evaluated by the method of testing antigen-specific CTL induction.
For example, the above hydrogel formulation was prepared as follows. Compound of formula 4, Peptide SEQ ID No. 3, and polyoxyethylene(196)polyoxypropylene(67) glycol were mixed with pH 2.5 buffer (10 mM tartaric acid) to adjust each concentration to 1.5 mg/mL, 1.125 mg/mL, and 200 mg/mL, respectively. The mixture was […] to give a hydrogel formulation, cocktail vaccine j. The amount of the preparation was adjusted as appropriate.
Cocktail vaccine j was injected to mice intradermally at the tail base area in an amount for administering 300 μg of Compound of formula 4 per body and 225 μg of Peptide SEQ ID No. 3 per body. […] Then, after removal of the supernatant from the wells, stained spots on the ELISPOT plate were counted.

CCCCCNc1nc(N)nc(C)c1Cc1ccc(CN(C)CCOCCOCCOCCOCCO)cc1OC [Example 1, 1-(4-{[2-amino-4-methyl-6-(pentylamino)pyrimidin-5-yl]methyl}-3-methoxyphenyl)-2-methyl-5,8,11,14-tetraoxa-2-azahexadecan-16-ol·trifluoroacetate]
CTL counts responsive to Peptide of SEQ ID No. 18 compared with adding no compound [1]: more | CTL counts responsive to Peptide SEQ ID No. 1 or SEQ ID No. 4 compared with adding no compound [2]: more
